From the NIST ThermoML archive (doi:10.1016/j.fluid.2015.09.035)
± gives the expanded uncertainty stated by the source.

Experiment: excess molar enthalpy (molar enthalpy of mixing); xn = mol fraction of the nth substance listed
Details: Liquid, Flow calorimetry

## C1CCCCC1 [cyclohexane] + CCCC(C)O
298.15 K, x2 = 0
  excess molar enthalpy: 0 ± 0.001 kJ/mol
313.15 K, x2 = 0
  excess molar enthalpy: 0 ± 0.001 kJ/mol

## CCCC(C)O (centres undefined) [pentan-2-ol] + C1CCCCC1
298.15 K, x1 = 0.0496
  excess molar enthalpy: 0.441 ± 0.006 kJ/mol
298.15 K, x1 = 0.1013
  excess molar enthalpy: 0.601 ± 0.0078 kJ/mol
298.15 K, x1 = 0.151
  excess molar enthalpy: 0.708 ± 0.0091 kJ/mol
298.15 K, x1 = 0.2008
  excess molar enthalpy: 0.792 ± 0.01 kJ/mol
298.15 K, x1 = 0.2506
  excess molar enthalpy: 0.858 ± 0.011 kJ/mol
298.15 K, x1 = 0.3005
  excess molar enthalpy: 0.914 ± 0.012 kJ/mol
298.15 K, x1 = 0.3503
  excess molar enthalpy: 0.952 ± 0.012 kJ/mol
298.15 K, x1 = 0.4001
  excess molar enthalpy: 0.969 ± 0.012 kJ/mol
298.15 K, x1 = 0.4499
  excess molar enthalpy: 0.98 ± 0.012 kJ/mol
298.15 K, x1 = 0.5002
  excess molar enthalpy: 0.956 ± 0.012 kJ/mol
298.15 K, x1 = 0.5499
  excess molar enthalpy: 0.92 ± 0.012 kJ/mol
298.15 K, x1 = 0.6002
  excess molar enthalpy: 0.868 ± 0.011 kJ/mol
298.15 K, x1 = 0.6501
  excess molar enthalpy: 0.781 ± 0.01 kJ/mol
298.15 K, x1 = 0.7002
  excess molar enthalpy: 0.693 ± 0.0089 kJ/mol
298.15 K, x1 = 0.7504
  excess molar enthalpy: 0.61 ± 0.0079 kJ/mol
298.15 K, x1 = 0.8007
  excess molar enthalpy: 0.507 ± 0.0067 kJ/mol
298.15 K, x1 = 0.8509
  excess molar enthalpy: 0.39 ± 0.0052 kJ/mol
298.15 K, x1 = 0.9013
  excess molar enthalpy: 0.261 ± 0.0037 kJ/mol
298.15 K, x1 = 0.9496
  excess molar enthalpy: 0.126 ± 0.0021 kJ/mol
298.15 K, x1 = 1
  excess molar enthalpy: 0 ± 0.001 kJ/mol
313.15 K, x1 = 0.0496
  excess molar enthalpy: 0.557 ± 0.0074 kJ/mol
313.15 K, x1 = 0.1013
  excess molar enthalpy: 0.757 ± 0.0097 kJ/mol
313.15 K, x1 = 0.151
  excess molar enthalpy: 0.872 ± 0.011 kJ/mol
313.15 K, x1 = 0.2008
  excess molar enthalpy: 0.96 ± 0.012 kJ/mol
313.15 K, x1 = 0.2506
  excess molar enthalpy: 1.03 ± 0.013 kJ/mol
313.15 K, x1 = 0.3003
  excess molar enthalpy: 1.08 ± 0.014 kJ/mol
313.15 K, x1 = 0.3502
  excess molar enthalpy: 1.11 ± 0.014 kJ/mol
313.15 K, x1 = 0.4002
  excess molar enthalpy: 1.11 ± 0.014 kJ/mol
313.15 K, x1 = 0.4501
  excess molar enthalpy: 1.11 ± 0.014 kJ/mol
313.15 K, x1 = 0.5001
  excess molar enthalpy: 1.09 ± 0.014 kJ/mol
313.15 K, x1 = 0.5501
  excess molar enthalpy: 1.05 ± 0.013 kJ/mol
313.15 K, x1 = 0.6001
  excess molar enthalpy: 0.989 ± 0.013 kJ/mol
313.15 K, x1 = 0.6502
  excess molar enthalpy: 0.918 ± 0.012 kJ/mol
313.15 K, x1 = 0.7003
  excess molar enthalpy: 0.829 ± 0.011 kJ/mol
313.15 K, x1 = 0.7505
  excess molar enthalpy: 0.717 ± 0.0092 kJ/mol
313.15 K, x1 = 0.8007
  excess molar enthalpy: 0.603 ± 0.0078 kJ/mol
313.15 K, x1 = 0.851
  excess molar enthalpy: 0.461 ± 0.0061 kJ/mol
313.15 K, x1 = 0.9013
  excess molar enthalpy: 0.316 ± 0.0044 kJ/mol
313.15 K, x1 = 0.9496
  excess molar enthalpy: 0.165 ± 0.0026 kJ/mol
313.15 K, x1 = 1
  excess molar enthalpy: 0 ± 0.001 kJ/mol

## CCCC(C)O (centres undefined) [pentan-2-ol] + Cc1ccccc1
298.15 K, x1 = 0.0508
  excess molar enthalpy: 0.624 ± 0.0083 kJ/mol
298.15 K, x1 = 0.0998
  excess molar enthalpy: 0.947 ± 0.012 kJ/mol
298.15 K, x1 = 0.151
  excess molar enthalpy: 1.15 ± 0.015 kJ/mol
298.15 K, x1 = 0.2002
  excess molar enthalpy: 1.3 ± 0.016 kJ/mol
298.15 K, x1 = 0.2496
  excess molar enthalpy: 1.4 ± 0.018 kJ/mol
298.15 K, x1 = 0.3009
  excess molar enthalpy: 1.48 ± 0.019 kJ/mol
298.15 K, x1 = 0.3506
  excess molar enthalpy: 1.54 ± 0.019 kJ/mol
298.15 K, x1 = 0.4003
  excess molar enthalpy: 1.56 ± 0.02 kJ/mol
298.15 K, x1 = 0.4501
  excess molar enthalpy: 1.56 ± 0.02 kJ/mol
298.15 K, x1 = 0.5001
  excess molar enthalpy: 1.54 ± 0.019 kJ/mol
298.15 K, x1 = 0.5501
  excess molar enthalpy: 1.5 ± 0.019 kJ/mol
298.15 K, x1 = 0.6003
  excess molar enthalpy: 1.44 ± 0.018 kJ/mol
298.15 K, x1 = 0.6506
  excess molar enthalpy: 1.34 ± 0.017 kJ/mol
298.15 K, x1 = 0.701
  excess molar enthalpy: 1.22 ± 0.015 kJ/mol
298.15 K, x1 = 0.7495
  excess molar enthalpy: 1.08 ± 0.014 kJ/mol
298.15 K, x1 = 0.8002
  excess molar enthalpy: 0.922 ± 0.012 kJ/mol
298.15 K, x1 = 0.8509
  excess molar enthalpy: 0.723 ± 0.0093 kJ/mol
298.15 K, x1 = 0.8996
  excess molar enthalpy: 0.501 ± 0.0066 kJ/mol
298.15 K, x1 = 0.9508
  excess molar enthalpy: 0.25 ± 0.0037 kJ/mol
298.15 K, x1 = 1
  excess molar enthalpy: 0 ± 0.001 kJ/mol
313.15 K, x1 = 0.0508
  excess molar enthalpy: 0.644 ± 0.0086 kJ/mol
313.15 K, x1 = 0.0999
  excess molar enthalpy: 1.03 ± 0.013 kJ/mol
313.15 K, x1 = 0.151
  excess molar enthalpy: 1.28 ± 0.016 kJ/mol
313.15 K, x1 = 0.2003
  excess molar enthalpy: 1.45 ± 0.018 kJ/mol
313.15 K, x1 = 0.2496
  excess molar enthalpy: 1.57 ± 0.02 kJ/mol
313.15 K, x1 = 0.301
  excess molar enthalpy: 1.66 ± 0.021 kJ/mol
313.15 K, x1 = 0.3506
  excess molar enthalpy: 1.71 ± 0.021 kJ/mol
313.15 K, x1 = 0.4003
  excess molar enthalpy: 1.73 ± 0.022 kJ/mol
313.15 K, x1 = 0.4502
  excess molar enthalpy: 1.73 ± 0.022 kJ/mol
313.15 K, x1 = 0.5001
  excess molar enthalpy: 1.7 ± 0.021 kJ/mol
313.15 K, x1 = 0.5502
  excess molar enthalpy: 1.65 ± 0.021 kJ/mol
313.15 K, x1 = 0.6003
  excess molar enthalpy: 1.58 ± 0.02 kJ/mol
313.15 K, x1 = 0.6505
  excess molar enthalpy: 1.48 ± 0.018 kJ/mol
313.15 K, x1 = 0.701
  excess molar enthalpy: 1.34 ± 0.017 kJ/mol
313.15 K, x1 = 0.7495
  excess molar enthalpy: 1.18 ± 0.015 kJ/mol
313.15 K, x1 = 0.8002
  excess molar enthalpy: 0.999 ± 0.013 kJ/mol
313.15 K, x1 = 0.851
  excess molar enthalpy: 0.782 ± 0.01 kJ/mol
313.15 K, x1 = 0.8998
  excess molar enthalpy: 0.55 ± 0.0072 kJ/mol
313.15 K, x1 = 0.9509
  excess molar enthalpy: 0.277 ± 0.004 kJ/mol
313.15 K, x1 = 1
  excess molar enthalpy: 0 ± 0.001 kJ/mol

## Cc1ccccc1 [toluene] + CCCC(C)O
298.15 K, x2 = 0
  excess molar enthalpy: 0 ± 0.001 kJ/mol
313.15 K, x2 = 0
  excess molar enthalpy: 0 ± 0.001 kJ/mol
